Source: patent publication US5852017A, “2,3(1H,4H)-quinoxalinediones” (BASF Aktiengesellschaft, priority 1992, dated 1998)

Columns and labels:
[1] = target: NMDA (N-methyl-D-aspartate) receptors; test: Binding of 3H-5,7-dichlorokynurenic acid to rat cerebra membrane material; conditions: displacement of 3H-5,7-dichlorokynurenic acid, membrane material from rat cerebra, incubated on ice for 30 minutes
Procedure: (§1) The pharmacological activity of the compounds I and I' according to the invention was investigated on membrane material isolated from rat cerebra. To do this, the membrane material was treated in the presence of the compounds according to the invention with the radio-labeled substances ^3 H-2-amino-3-hydroxy-5-methyl-4-isoxazolepropionic acid (^3 H-AMPA) and ^3 H-5,7-dichlorokynurenic acid, which bind to specific receptors (AMPA and NMDA (N-methyl-D-aspartate) receptors respectively). The radioactivity of the treated membranes was then measured by scintillation counting. The amounts of bound ^3 H-AMPA and ^3 H-5,7-dichlorokynurenic acid, or the amounts of these radiolabeled substances displaced in each case, can be determined from the bound radioactivity. The resulting dissociation constant KI (I=inhibitor), which is a measure of the displacement by the active substance according to the invention, was calculated by iterative non-linear regression analysis with the statistical analysis system (SAS) on an IBM computer, similar to the "Ligand" program of P. J. Munson and D. Rodbard (Analytical Biochem. 107, (1980) 220, Ligand: Versatile Computerized Approach for Characterization of Ligand Binding Systems).
2. Binding of ^3 H-5,7-dichlorokynurenic acid […]

[2] = target: AMPA receptors; test: Binding of 3H-AMPA to rat cerebra membrane material; conditions: displacement of 3H-AMPA, membrane material from rat cerebra, incubated on ice for 60 minutes
Procedure: as §1
1. Binding of ^3 H-2-amino-3-hydroxy-5-methyl-4-isoxazolepropionic acid (^3 H-AMPA) […]

| Compound | Ki [1] [µM] | Ki [2] [µM] |
| --- | --- | --- |
| O=c1[nH]c2cc(-n3cccc3)c(C(F)(F)F)cc2[nH]c1=O [Example 2, 6-(1-Pyrrolyl)-7-trifluoromethyl-2,3(1H,4H)-quinoxalinedione] | < 10 |  |
| O=c1[nH]c2cc(Cl)c(-n3cccc3)cc2[nH]c1=O [Example 1, 7-Chloro-6-(1-pyrrolyl)-2,3(1H,4H)-quinoxalinedione] |  | < 10 |
